Results from patent US6620418B1, “Antiseptic/antifungal agent and endermic liniment composition which contains it” (Shiseido Company, Ltd., priority 1999, dated 2003).

Tested on: Mold, yeast, and bacteria
Assay: The antiseptic effectiveness evaluation test
Assay type: cell-based
Method: The Antiseptic Effectiveness Evaluation Test 30 ml of the sample was inoculated with microbe-containing fluid, and the change in the number of microbes was checked with the smearing method. Mold, yeast, and bacteria were used as the inoculation microbes. The antiseptic effectiveness was evaluated based on the changes in the number of the microbes in two weeks, and the obtained results were classified by using the following four step criterion. […] X: No reduction in microbes was observed.

## CCCCC(CC)(CO)CO [2-n-butyl-2-ethyl-1,3-propanediol]
1,3-butylene glycol additionally blended into the composition
  concentration at which an adequate effect on bacteria was confirmed: 0.1%
Lotions of Table 1-2, effect on all the mold, yeast, and bacteria
  concentration of 2-n-butyl-2-ethyl-1,3-propanediol at which the compositions showed adequate antiseptic effectiveness: ≥ 0.5%
